ChEMBL document CHEMBL3132842, “Synthesis of metergoline analogues and their evaluation as antiplasmodial agents” (Medchemcomm, 2014)

Experiments:
[1] = Selectivity index, ratio of IC50 for CHO cells to IC50 for chloroquine-sensitive Plasmodium falciparum NF54; assay type: toxicity, cell-based; details: hamster, read-out: Ratio IC50
CHO = assay: Cytotoxicity against CHO cells by MTT assay; assay type: cell-based; details: Cricetulus griseus
Plasmodium falciparum [2] = assay: Antiplasmodial activity against chloroquine-sensitive Plasmodium falciparum NF54 assessed as reduction in parasite growth by parasite lactate dehydrogenase assay; assay type: functional, organism-based
Plasmodium falciparum [3] = assay: Antiplasmodial activity against Plasmodium falciparum after 48 hrs by NIH quantitative high throughput screen assay; assay type: functional, organism-based

Structure (SMILES)	selectivity ratio [1]	IC50 (CHO) [µM]	IC50 (Plasmodium falciparum [2])	IC50 (Plasmodium falciparum [3]) [µM]
CC(=O)c1ccc(C(=O)NC[C@@H]2C[C@@H]3c4cccc5c4c(cn5C)C[C@H]3N(C)C2)cc1	12	152	12.3 µM	
CN1C[C@H](CNC(=O)C2CCCCN2)C[C@@H]2c3cccc4c3c(cn4C)C[C@H]21 (stereo not given in full)	13	16.6	1.23 µM	
CN1C[C@H](CNC(=O)c2cccnc2)C[C@@H]2c3cccc4c3c(cn4C)C[C@H]21	9	162	17.4 µM	
CN1C[C@H](CNC(=O)c2ccncc2)C[C@@H]2c3cccc4c3c(cn4C)C[C@H]21	9	161	17.5 µM	
CN1C[C@H](CNC(=O)c2ccccn2)C[C@@H]2c3cccc4c3c(cn4C)C[C@H]21	10	112	11.4 µM	
CN1C[C@H](CNC(=O)c2cnccn2)C[C@@H]2c3cccc4c3c(cn4C)C[C@H]21	20	164	8.4 µM	
CN1C[C@H](CNC(=O)c2ccncn2)C[C@@H]2c3cccc4c3c(cn4C)C[C@H]21			27.4 µM	
CC(=O)NC[C@@H]1C[C@@H]2c3cccc4c3c(cn4C)C[C@H]2N(C)C1			199 µM	
CCC(=O)NC[C@@H]1C[C@@H]2c3cccc4c3c(cn4C)C[C@H]2N(C)C1			40.3 µM	
CCCC(=O)NC[C@@H]1C[C@@H]2c3cccc4c3c(cn4C)C[C@H]2N(C)C1			32.1 µM	
CCCCC(=O)NC[C@@H]1C[C@@H]2c3cccc4c3c(cn4C)C[C@H]2N(C)C1	6	105	18.7 µM	
CN1C[C@H](CNC(=O)C(C)(C)C)C[C@@H]2c3cccc4c3c(cn4C)C[C@H]21			89.1 µM	
CCCCCC(=O)NC[C@@H]1C[C@@H]2c3cccc4c3c(cn4C)C[C@H]2N(C)C1			28.6 µM	
CCCCCCC(=O)NC[C@@H]1C[C@@H]2c3cccc4c3c(cn4C)C[C@H]2N(C)C1	1	8.9	9.1 µM	
CCCCCCCC(=O)NC[C@@H]1C[C@@H]2c3cccc4c3c(cn4C)C[C@H]2N(C)C1	1	4.6	3.9 µM	
CCCCCCCCCC(=O)NC[C@@H]1C[C@@H]2c3cccc4c3c(cn4C)C[C@H]2N(C)C1	17	86.6	5.2 µM	
CN1C[C@H](CNC(=O)C2CCCC2)C[C@@H]2c3cccc4c3c(cn4C)C[C@H]21	33	144	4.3 µM	
CN1C[C@H](CNC(=O)c2ccc(OC(F)(F)F)cc2)C[C@@H]2c3cccc4c3c(cn4C)C[C@H]21	3	12.8	4.2 µM	
CN1C[C@H](CNC(=O)c2ccc([N+](=O)[O-])cc2)C[C@@H]2c3cccc4c3c(cn4C)C[C@H]21	11	5	0.5 µM	
CN1C[C@H](CNC(=O)c2ccc(Cl)cc2)C[C@@H]2c3cccc4c3c(cn4C)C[C@H]21	3	4.3	1.3 µM	

Structure (SMILES)	selectivity ratio [1]	IC50 (CHO) [µM]	IC50 (Plasmodium falciparum [2])	IC50 (Plasmodium falciparum [3]) [µM]
CN1C[C@H](CNC(=O)c2ccccc2Cl)C[C@@H]2c3cccc4c3c(cn4C)C[C@H]21	2	25	14.6 µM	
CN1C[C@H](CNC(=O)c2cccc(Cl)c2)C[C@@H]2c3cccc4c3c(cn4C)C[C@H]21	1	4.7	4.9 µM	
CN1C[C@H](CNC(=O)c2ccc(Cl)c(Cl)c2)C[C@@H]2c3cccc4c3c(cn4C)C[C@H]21	1	3.8	4.8 µM	
CN1C[C@H](CNC(=O)c2ccc(Cl)cc2Cl)C[C@@H]2c3cccc4c3c(cn4C)C[C@H]21	1	7.5	8.3 µM	
CN1C[C@H](CNC(=O)c2ccc(C#N)cc2)C[C@@H]2c3cccc4c3c(cn4C)C[C@H]21	188	104	0.6 µM	
CN1C[C@H](CNC(=O)c2ccc(S(C)(=O)=O)cc2)C[C@@H]2c3cccc4c3c(cn4C)C[C@H]21	16	222	14.2 µM	
COc1ccc(C(=O)NC[C@@H]2C[C@@H]3c4cccc5c4c(cn5C)C[C@H]3N(C)C2)cc1	1	7.4	8.4 µM	
CSc1ccc(C(=O)NC[C@@H]2C[C@@H]3c4cccc5c4c(cn5C)C[C@H]3N(C)C2)cc1	1	6	4.7 µM	
CCc1ccc(C(=O)NC[C@@H]2C[C@@H]3c4cccc5c4c(cn5C)C[C@H]3N(C)C2)cc1	1	5.6	4.3 µM	
CCCCc1ccc(C(=O)NC[C@@H]2C[C@@H]3c4cccc5c4c(cn5C)C[C@H]3N(C)C2)cc1	7	14.5	2 µM	
CN(C)c1ccc(C(=O)NC[C@@H]2C[C@@H]3c4cccc5c4c(cn5C)C[C@H]3N(C)C2)cc1	4	132	33.8 µM	
CN1C[C@H](CN)C[C@@H]2c3cccc4c3c(cn4C)C[C@H]21	7	26.1	3.6 µM	
CN1C[C@H](CNC(=O)c2ccccc2)C[C@@H]2c3cccc4c3c(cn4C)C[C@H]21	1	27	24.4 µM	
CN1C[C@H](CNC(=O)c2ccc(F)cc2)C[C@@H]2c3cccc4c3c(cn4C)C[C@H]21	0.6	7.3	12.5 µM	
CN1C[C@H](CNC(=O)c2ccc(Br)cc2)C[C@@H]2c3cccc4c3c(cn4C)C[C@H]21	2	5.1	2.6 µM	
CN1C[C@H](CNC(=O)c2ccc(I)cc2)C[C@@H]2c3cccc4c3c(cn4C)C[C@H]21	2	5.5	3 µM	
CN1C[C@H](CNC(=O)c2ccc(C(F)(F)F)cc2)C[C@@H]2c3cccc4c3c(cn4C)C[C@H]21	2	4.9	2.7 µM	
C[C@H]1[C@H](OC(=O)CCC(=O)O)O[C@@H]2O[C@@]3(C)CC[C@H]4[C@H](C)CC[C@@H]1[C@@]24OO3 [ARTESUNATE]			2.8 ng/mL	
CC[C@H]1CN2CCc3cc(OC)c(OC)cc3[C@@H]2C[C@@H]1C[C@H]1NCCc2cc(OC)c(OC)cc21 [EMETINE]		0.05		
CN1C[C@H](CNC(=O)OCc2ccccc2)C[C@@H]2c3cccc4c3c(cn4C)C[C@H]21 [METERGOLINE]	4.5	16.6	3.7 µM	7.4
